Data set [1] concerns the target T1, Replicase polyprotein 1ab (Severe acute respiratory syndrome coronavirus 2, UniProt P0DTD1).
Data set [2] addresses T1, Replicase polyprotein 1ab. This is another data set of the same source.
Data set [3] has as its system Vero. The experiment in a line: Cytotoxicity against green monkey Vero cells. The class given is toxicity, cell-based. Particulars: chlorocebus sabaeus.
In data set [4] the test system is SARS-CoV-2. In words: microbe, parasite or virus in culture. The note with it: Severe acute respiratory syndrome coronavirus 2, Vero, 16 h.
Data set [5] deals with Procathepsin L (Homo sapiens, UniProt P07711).
In data set [6] the target is Replicase polyprotein 1a (Severe acute respiratory syndrome-related coronavirus, UniProt P0C6U8).
For data set [7], the target named is T1, Replicase polyprotein 1ab. The source holds these as a separate data set.
In data set [8] the target is Replicase polyprotein 1ab (Severe acute respiratory syndrome coronavirus 2) (UniProt P0DTD1). Particulars: time 70.0 min.
The target is the same in data set [9]. The note with it: dose 40.0 µM, time 30.0 min.

Molecules are shown by their SMILES.

The text below walks through data of ChEMBL document CHEMBL5335774 (Eur J Med Chem, 2023).

Chain of Procathepsin L (P07711 whole entry): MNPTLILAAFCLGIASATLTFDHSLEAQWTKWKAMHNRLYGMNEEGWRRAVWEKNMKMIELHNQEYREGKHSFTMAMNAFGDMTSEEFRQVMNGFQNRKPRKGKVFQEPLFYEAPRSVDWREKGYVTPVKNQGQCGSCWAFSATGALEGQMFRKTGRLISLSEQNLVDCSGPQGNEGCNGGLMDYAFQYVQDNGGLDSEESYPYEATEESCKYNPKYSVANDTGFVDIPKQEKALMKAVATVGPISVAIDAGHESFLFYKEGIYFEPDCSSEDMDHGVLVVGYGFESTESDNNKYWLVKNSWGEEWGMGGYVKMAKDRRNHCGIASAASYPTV

The pIC50 is −log10 of the IC50, conventionally taken in molar units. Regarding `Cc1cccc2nc(CNC(=S)NCc3cccnc3)cn12`, the pIC50 in [1] is under 4. The IC50 in [1] (read-out: IC50) was over 100 µM; in data set [2] (read-out: IC50) it was 35 µM.

On to `CCSC(=S)NCc1cccnc1`, for which the IC50 stood at 22.4 µM in data set [1] (read-out: IC50) and 0.178 µM in data set [2] (read-out: IC50).

What is called inhibition is the change of the read-out against control, counted positive when it falls. The ΔTm is the shift of the melting midpoint relative to a reference. As for `Cc1cccc2nc(CSC(=S)NCc3cccnc3)cn12`, the Activity result in data set [3] is on record as “Non-Toxic”. In addition, the IC50 in data set [4] is 1.06 µM; in data set [1] (read-out: IC50), 1.46 µM; in data set [1] (read-out: pIC50 (converted)), 1.41 µM; in data set [2] (read-out: IC50), 0.021 µM; in [5] (read-out: IC50), 122 µM; in data set [6], 0.383 µM. For the same molecule, in [7], the IC50 was found to be 0.008 µM. Besides, the inhibition in data set [8] came to 80%. In addition, the ΔTm in [9] is 14.2 °C.

For the molecule `S=C(NCc1cccnc1)OCc1ccccc1`, the pIC50 in data set [1] is under 4. In addition, the IC50 in [1] (read-out: IC50), in [2] (read-out: IC50) and in data set [2] (read-out: pIC50 (converted)) was over 100 µM in each case.

In the case of `CC(C)C[C@H](NC(=O)OCc1ccccc1)C(=O)N[C@@H](CC1CCNC1=O)C(O)S(=O)(=O)O` (some centres not stated), the IC50 in data set [5] (read-out: pIC50 (converted)) is 0.000692 µM.

For `S=C(NCc1cccnc1)SCc1ccccc1`, the IC50 in data set [1] (read-out: IC50) came out at 9.36 µM; in data set [2] (read-out: IC50), 0.023 µM.

As for `S=C([S-])NCc1cccnc1.[K+]`, the Activity result in [3] is “Toxic”. Moreover, the IC50 in data set [1] (read-out: IC50) was 1.36 µM; in data set [2] (read-out: pIC50 (converted)), 0.0269 µM; in data set [5] (read-out: IC50) it was 42.8 µM; in data set [6], 0.165 µM.
